What is called EC50 is the midpoint of the concentration-response curve. As usually defined, the IC50 is the point on the concentration scale where inhibition reaches its midpoint.

Data on one compound can be found in US20240124470A1, “FIVE-MEMBERED RING DERIVATIVE AND MEDICAL USE THEREOF” (SICHUAN HAISCO PHARMACEUTICAL CO., LTD., priority 2020, published 2024).

Each structure is given as a SMILES string. Where two headings read alike, the source gives them in different places. Some results are limits rather than exact numbers.

In data set [1] the target is T1, GLP-1 receptor (Homo sapiens, UniProt P43220).
T1 construct: expressed in transfected cells
The experiment in a line: HEK293/CRE-luc/GLP-1R cell luciferase reporter test (agonistic effect on GLP-1 receptor). Type of data set: cell-based. Particulars: HEK293/CRE-luc/GLP-1R cells. The method, then: 1. HEK293/CRE-luc/GLP-1β cell viability
Cell: HEK293/CRE-luc/GLP-1R
Cell culture medium: DMEM+10% FBS+400 μg/ml G418+100 μg/ml Hygromycin B
Frozen stock solution: 90% FBS, 10% (V/V) DMSO
Detection buffer: DMEM+1% FBS
Cells were cultured in DMEM medium+10% FBS+400 μg/ml G418+100 μg/ml Hygromycin B in a CO2 incubator at 37° C., and passaged once every 3-4 days.
Cell plating: Trypsinization adjusted the cell density to 1.67×10^5 cells/mL; 60 μL of cells per well (10000 cells/well) was inoculated in a 384-well plate containing compounds; A NC well (negative control) and a background well (no cells) were set. Incubation was performed for about 18+2 h in the incubator.
Compounds were serially diluted with the detection buffer, and the detection concentration was 0.01 nM-1000 nM.
The cell culture plate was removed and all supernatant was aspirated from the cells. The cells were washed gently 2 times with 1×PBS.
The diluted compound was added to a 384-well plate (10 μL/well), and three replicate wells were set for each concentration. 10 μL of the detection buffer was added to the NC well, sealed and incubated at 37° C. for 6 hours.
The plate was removed, the cells were allowed to equilibrate to room temperature (at least 15 min), and then all supernatant was aspirated from the cells.
Steady-Glo® Reagent was added to the sample well at 10 μL/well and incubated at room temperature for 5 min to lyse the cells.
The test results were read with a BMG microplate reader.
The mean background value was calculated.
The induction factor (Fold of induction, FI)=(induction well value−background value)/(negative control well value −background value) was calculated.
The EC50 value of the sample was calculated using Graphpad Prim 8.0 software using four-parameter fitting analysis.
Mean and standard error (Mean±SEM) were calculated for all results and Graphpad Prism software was used for statistical analysis. Specific data were presented in the form of graphs. P<0.05 was considered to be statistically different.

For data set [2], the target named is T2, CYP2C19 (Homo sapiens, UniProt P33261).
T2 construct: pre-incubated with the human liver microsome solutions containing 5 enzyme mixed substrates; from tissue; host or cells: human liver microsomes
The data set is described as follows: Cytochrome P450 isoenzyme inhibition test, human liver microsomes: CYP2C19. Type of data set: in vitro ADME. As to conditions: human liver microsomes 0.1 mg/mL; read-out: IC50, inhibitory activity on CYP2C19. The protocol:
(§1) 9. Cytochrome P450 Isoenzyme Inhibition Test Experimental objective: The inhibitory effect of the test compound on the activity of human liver microsomal cytochrome P450 isoenzyme (CYP1A2, CYP2C19, CYP2D6 and CYP3A4) was determined. Experimental operation: The test compound at an incubation concentration of 0, 0.03, 0.1, 0.3, 1, 3, 10, 30 and 100 μM was pre-incubated with the human liver microsome solutions containing 5 enzyme mixed substrates (liver microsome concentration: 0.1 mg/mL) in a water bath at 37° C. for 10 min, respectively, and then a coenzyme factor (NADPH) was added to start the reaction. After incubation in a water bath at 37° C. for 10 min, the reaction was terminated by adding glacial acetonitrile solution containing an internal standard, shaken for 1 min, centrifuged at 4° C. and 10,000 rpm for 10 min, and the supernatant was taken for LC/MS/MS analysis. The amount of metabolites produced by each CYP enzyme substrate was detected. The activity of each CYP isoenzyme was reflected by the production rate of each metabolite. […]
A general note: Microsomes from liver hold many membrane-bound enzymes, among them those of drug oxidation.

For data set [3], the target named is T3, CYP2D6 (Homo sapiens, UniProt P10635).
T3 construct: pre-incubated with the human liver microsome solutions containing 5 enzyme mixed substrates; from tissue; host or cells: human liver microsomes
The data set is described as follows: Cytochrome P450 isoenzyme inhibition test, human liver microsomes: CYP2D6. It is filed as in vitro ADME. Particulars: human liver microsomes 0.1 mg/mL; read-out: IC50, inhibitory activity on CYP2D6. The method, then: as §1

A short description of data set [4]: Evaluation of pharmacokinetics in cynomolgus monkeys. Type of data set: in vivo. Particulars: intravenous 2 mg/kg and intragastric 10 mg/kg. The method, then:
Evaluation of Pharmacokinetics in Cynomolgus Monkeys
Male cynomolgus monkeys (raised in Suzhou LEOLAB Bio Tech. Co., Ltd.), weighing 3-5 kg, were fasted overnight (14-18 h), […]. On the day of the experiment, 6 male cynomolgus monkeys were divided into 2 groups, with 3 […] in each group. The test compound was administered intravenously and intragastrically at doses of 2 mg/kg and 10 mg/kg respectively. Before administration and 5 min, 15 min, 30 min, 1 h, 2 h, 4 h, 6 h, 8 h 10 h, 12 h and 24 h after administration, 1 ml of blood was collected via the limb vein, placed in an EDTAK2 centrifuge tube, and centrifuged at 6000 rpm at 4° C. for 5 min, and then the plasma was collected. The plasma sample was added to an acetonitrile solution containing an internal standard (dexamethasone, 500 ng/mL), vortexed and centrifuged at 10,000 rpm for 10 min, and the supernatant was taken for LC-MS/MS analysis. Pharmacokinetic parameters were calculated using the non-compartmental model in WinNonlin Version 8.0 (Pharsight, Mountain View, CA) pharmacokinetic software. Conclusion: The compounds of the present invention have good metabolic properties.

T1 sequence (P43220 24-463): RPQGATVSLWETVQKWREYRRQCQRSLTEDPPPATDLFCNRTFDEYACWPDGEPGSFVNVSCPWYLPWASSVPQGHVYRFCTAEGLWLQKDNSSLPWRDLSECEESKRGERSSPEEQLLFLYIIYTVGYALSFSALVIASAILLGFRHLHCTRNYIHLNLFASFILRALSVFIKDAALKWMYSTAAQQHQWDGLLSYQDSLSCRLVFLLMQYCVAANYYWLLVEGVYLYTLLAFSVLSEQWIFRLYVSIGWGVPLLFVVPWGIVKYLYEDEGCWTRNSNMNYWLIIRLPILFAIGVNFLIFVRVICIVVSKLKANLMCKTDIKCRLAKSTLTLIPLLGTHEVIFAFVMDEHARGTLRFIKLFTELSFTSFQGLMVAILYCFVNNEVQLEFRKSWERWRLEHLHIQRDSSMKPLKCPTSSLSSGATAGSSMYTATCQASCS
T3 sequence (P10635 whole entry): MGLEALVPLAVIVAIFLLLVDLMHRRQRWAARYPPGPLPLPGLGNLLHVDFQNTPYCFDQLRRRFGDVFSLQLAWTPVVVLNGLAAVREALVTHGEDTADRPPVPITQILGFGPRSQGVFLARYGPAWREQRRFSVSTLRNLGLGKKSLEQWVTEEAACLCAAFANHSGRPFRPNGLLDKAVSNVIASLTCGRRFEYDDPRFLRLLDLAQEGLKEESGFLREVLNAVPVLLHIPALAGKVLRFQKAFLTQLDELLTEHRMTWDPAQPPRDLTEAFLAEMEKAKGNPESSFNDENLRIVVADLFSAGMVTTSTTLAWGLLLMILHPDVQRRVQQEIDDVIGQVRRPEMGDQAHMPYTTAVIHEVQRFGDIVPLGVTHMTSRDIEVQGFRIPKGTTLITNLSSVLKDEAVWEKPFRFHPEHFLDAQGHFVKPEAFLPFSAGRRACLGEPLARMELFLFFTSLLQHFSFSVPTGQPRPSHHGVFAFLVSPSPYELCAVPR
T2 sequence (P33261 whole entry): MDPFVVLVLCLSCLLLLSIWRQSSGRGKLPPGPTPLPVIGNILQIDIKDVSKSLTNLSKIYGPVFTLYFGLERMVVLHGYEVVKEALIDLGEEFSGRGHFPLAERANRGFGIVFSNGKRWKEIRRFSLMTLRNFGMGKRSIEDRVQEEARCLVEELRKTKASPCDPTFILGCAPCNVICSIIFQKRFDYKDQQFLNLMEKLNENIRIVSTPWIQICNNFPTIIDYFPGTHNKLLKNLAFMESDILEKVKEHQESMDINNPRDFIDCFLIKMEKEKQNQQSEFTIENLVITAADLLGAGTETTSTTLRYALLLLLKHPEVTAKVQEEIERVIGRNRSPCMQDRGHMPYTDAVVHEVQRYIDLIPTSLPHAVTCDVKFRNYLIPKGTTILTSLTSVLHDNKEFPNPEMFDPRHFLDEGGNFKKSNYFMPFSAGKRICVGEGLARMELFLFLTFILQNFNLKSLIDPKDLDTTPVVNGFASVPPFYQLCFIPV

Take `N#Cc1ccc(COc2cccc(-c3ccc(Cc4nc5sc(C(=O)O)cc5n4C[C@@H]4CCO4)c(F)c3)n2)c(F)c1` [Compound 6, (S)-2-(4-(6-((4-cyano-2-fluorobenzyl)oxy)pyridin-2-yl)-2-fluorobenzyl)-1-(oxetan-2-ylmethyl)-1H-thieno[2,3-d]imidazole-5-carboxylic acid]: the EC50 was under 0.01 µM in data set [1] (6 hours incubation, class symbols, read-out: EC50) and under 0.01 µM in data set [1] (bound stated, read-out: EC50 value). Besides, the IC50 in data set [2] and in data set [3] was over 50 µM each time. The “clearance rate in monkeys” value in data set [4] was “low clearance rate”. Also, the half-life in monkeys entry in data set [4] is “long half-life”.
